# Data published in US20090018134A1, “Compounds - 945” (AstraZeneca AB, priority 2007, published 2009).
# pIC50: −log10 of the molar value.
# Biological target: T1, mTOR (Homo sapiens, UniProt P42345)
# T1 construct: FLAG; made in house
# Experiment: In Vitro mTOR Kinase Assay (Echo), Test (a)(ii)
# Assay type: biochemical
# Settings: read-out: mTOR Kinase Assay (Echo)
# Method in brief: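 FLAG-tagged human mTOR truncation (residues 1362-2549) expressed in HEK293 cells and FLAG-purified. Compounds dispensed acoustically, reaction 2 h at room temperature, stopped with EDTA. Phosphorylation of biotinylated peptide detected by AlphaScreen with anti-p70 S6K (T389) antibody overnight; IC50 reported.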
# T1 sequence (P42345 1362-2549): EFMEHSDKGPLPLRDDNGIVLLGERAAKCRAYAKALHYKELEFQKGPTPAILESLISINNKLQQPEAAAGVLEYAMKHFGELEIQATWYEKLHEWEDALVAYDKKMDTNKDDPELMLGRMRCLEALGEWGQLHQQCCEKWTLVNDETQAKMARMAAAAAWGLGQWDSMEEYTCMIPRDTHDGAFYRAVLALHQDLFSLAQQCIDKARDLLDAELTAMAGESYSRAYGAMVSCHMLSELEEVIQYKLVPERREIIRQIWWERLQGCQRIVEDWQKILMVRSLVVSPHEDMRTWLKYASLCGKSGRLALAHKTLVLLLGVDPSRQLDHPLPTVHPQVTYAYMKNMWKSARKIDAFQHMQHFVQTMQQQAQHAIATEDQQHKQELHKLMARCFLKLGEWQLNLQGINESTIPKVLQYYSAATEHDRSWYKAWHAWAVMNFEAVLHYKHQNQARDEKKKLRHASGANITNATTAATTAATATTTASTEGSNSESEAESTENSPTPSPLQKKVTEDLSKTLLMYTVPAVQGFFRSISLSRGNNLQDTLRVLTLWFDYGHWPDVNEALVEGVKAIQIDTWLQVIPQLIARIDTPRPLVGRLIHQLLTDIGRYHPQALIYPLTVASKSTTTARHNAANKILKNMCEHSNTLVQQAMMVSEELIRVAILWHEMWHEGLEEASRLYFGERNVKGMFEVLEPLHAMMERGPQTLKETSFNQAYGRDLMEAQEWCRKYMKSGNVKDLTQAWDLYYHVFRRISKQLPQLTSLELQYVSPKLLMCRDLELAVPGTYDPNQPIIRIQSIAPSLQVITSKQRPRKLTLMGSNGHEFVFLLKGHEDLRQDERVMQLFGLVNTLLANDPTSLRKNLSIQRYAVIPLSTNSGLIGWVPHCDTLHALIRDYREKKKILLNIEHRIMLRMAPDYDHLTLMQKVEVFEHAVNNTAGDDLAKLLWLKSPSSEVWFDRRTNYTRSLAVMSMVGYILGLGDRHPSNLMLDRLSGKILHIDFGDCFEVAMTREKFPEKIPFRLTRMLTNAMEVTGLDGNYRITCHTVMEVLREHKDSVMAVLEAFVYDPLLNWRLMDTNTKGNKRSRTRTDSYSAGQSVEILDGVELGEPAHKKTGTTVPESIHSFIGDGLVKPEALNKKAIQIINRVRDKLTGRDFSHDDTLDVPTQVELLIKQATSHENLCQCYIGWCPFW
row,pIC50,Compound
1,8.24,CCCNC(=O)Nc1ccc(-c2nc(N3CCOC[C@@H]3C)cc(C3(S(=O)(=O)C4CCCC4)CC3)n2)cc1 [Example 9h]
2,8.62,CNC(=O)Nc1ccc(-c2nc(N3CCOC[C@@H]3C)cc(C3(S(=O)(=O)C4CCCC4)CC3)n2)cc1 [Example 9i]
3,7.94,C[C@H]1COCCN1c1cc(C2(S(=O)(=O)C3CCCC3)CC2)nc(-c2ccc(NC(=O)NC(C)(C)CO)cc2)n1 [Example 9k]
4,8.35,"C[C@H]1COCCN1c1cc(C2(S(=O)(=O)c3ccccc3C(F)(F)F)CC2)nc(-c2ccc(NC(=O)NC3CC3)cc2)n1 [Example 10, 3-Cyclopropyl-1-[4-[4-[(3S)-3-methylmorpholin-4-yl]-6-[1-[2-(trifluoromethyl)phenyl]sulfonylcyclopropyl]pyrimidin-2-yl]phenyl]urea]"
5,7.40,"C[C@H]1COCCN1c1cc(C2(S(=O)(=O)c3ccccc3C(F)(F)F)CC2)nc(-c2ccc(NC(=O)NC3CCC3)cc2)n1 [Example 10a, 3-cyclobutyl-1-[4-[4-[(3S)-3-methylmorpholin-4-yl]-6-[1-[2-(trifluoromethyl)phenyl]sulfonylcyclopropyl]pyrimidin-2-yl]phenyl]urea]"
6,7.58,"C[C@H]1COCCN1c1cc(C2(S(=O)(=O)c3ccccc3C(F)(F)F)CC2)nc(-c2ccc(NC(=O)Nc3ccccn3)cc2)n1 [Example 10b, 1-[4-[4-[(3S)-3-methylmorpholin-4-yl]-6-[1-[2-(trifluoromethyl)phenyl]sulfonylcyclopropyl]pyrimidin-2-yl]phenyl]-3-pyridin-2-yl-urea]"
7,6.83,"CC(C)CNC(=O)Nc1ccc(-c2nc(N3CCOC[C@@H]3C)cc(C3(S(=O)(=O)c4ccccc4C(F)(F)F)CC3)n2)cc1 [Example 10c, 1-[4-[4-[(3S)-3-methylmorpholin-4-yl]-6-[1-[2-(trifluoromethyl)phenyl]sulfonylcyclopropyl]pyrimidin-2-yl]phenyl]-3-(2-methylpropyl)urea]"
8,7.36,"CC(C)NC(=O)Nc1ccc(-c2nc(N3CCOC[C@@H]3C)cc(C3(S(=O)(=O)c4ccccc4C(F)(F)F)CC3)n2)cc1 [Example 10d, 1-[4-[4-[(3S)-3-methylmorpholin-4-yl]-6-[1-[2-(trifluoromethyl)phenyl]sulfonylcyclopropyl]pyrimidin-2-yl]phenyl]-3-propan-2-yl-urea]"
9,8.16,"CCNC(=O)Nc1ccc(-c2nc(N3CCOC[C@@H]3C)cc(C3(S(=O)(=O)c4ccccc4C(F)(F)F)CC3)n2)cc1 [Example 10e, 1-ethyl-3-[4-[4-[(3S)-3-methylmorpholin-4-yl]-6-[1-[2-(trifluoromethyl)phenyl]sulfonylcyclopropyl]pyrimidin-2-yl]phenyl]urea]"
10,6.76,"C[C@H]1COCCN1c1cc(C2(S(=O)(=O)c3ccccc3C(F)(F)F)CC2)nc(-c2ccc(NC(=O)NCCN(C)C)cc2)n1 [Example 10f, 3-(2-dimethylaminomethyl)-1-[4-[4-[(3S)-3-methylmorpholin-4-yl]-6-[1-[2-(trifluoromethyl)phenyl]sulfonylcyclopropyl]pyrimidin-2-yl]phenyl]urea]"
11,8.81,C[C@H]1COCCN1c1cc(C2(S(=O)(=O)c3ccccc3C(F)(F)F)CC2)nc(-c2ccc(NC(=O)NCCO)cc2)n1 [Example 10g]
12,7.57,"CCCNC(=O)Nc1ccc(-c2nc(N3CCOC[C@@H]3C)cc(C3(S(=O)(=O)c4ccccc4C(F)(F)F)CC3)n2)cc1 [Example 10h, 3-[4-[4-[(3S)-3-methylmorpholin-4-yl]-6-[1-[2-(trifluoromethyl)phenyl]sulfonylcyclopropyl]pyrimidin-2-yl]phenyl]-1-propyl-urea]"
13,8.23,"CNC(=O)Nc1ccc(-c2nc(N3CCOC[C@@H]3C)cc(C3(S(=O)(=O)c4ccccc4C(F)(F)F)CC3)n2)cc1 [Example 10i, 3-methyl-1-[4-[4-[(3S)-3-methylmorpholin-4-yl]-6-[1-[2-(trifluoromethyl)phenyl]sulfonylcyclopropyl]pyrimidin-2-yl]phenyl]urea]"
14,6.96,"C[C@H]1COCCN1c1cc(C2(S(=O)(=O)c3ccccc3C(F)(F)F)CC2)nc(-c2ccc(NC(=O)Nc3ccc(C(F)(F)F)cc3)cc2)n1 [Example 10j, 1-[4-[4-[(3S)-3-methylmorpholin-4-yl]-6-[1-[2-(trifluoromethyl)phenyl]sulfonylcyclopropyl]pyrimidin-2-yl]phenyl]-3-[4-(trifluoromethyl)phenyl]urea]"
15,7.30,"C[C@H]1COCCN1c1cc(C2(S(=O)(=O)c3ccccc3C(F)(F)F)CC2)nc(-c2ccc(NC(=O)NC(C)(C)CO)cc2)n1 [Example 10k, 3-(1-hydroxy-2-methyl-propan-2-yl)-1-[4-[4-[(3S)-3-methylmorpholin-4-yl]-6-[1-[2-(trifluoromethyl)phenyl]sulfonylcyclopropyl]pyrimidin-2-yl]phenyl]urea]"
16,7.74,"C[C@H]1COCCN1c1cc(C2(S(=O)(=O)c3ccccc3C(F)(F)F)CC2)nc(-c2ccc(NC(=O)NCCCO)cc2)n1 [Example 10l, 3-(3-hydroxypropyl)-1-[4-[4-[(3S)-3-methylmorpholin-4-yl]-6-[1-[2-(trifluoromethyl)phenyl]sulfonylcyclopropyl]pyrimidin-2-yl]phenyl]urea]"
17,8.30,"C[C@H]1COCCN1c1cc(C2(S(=O)(=O)c3ccccc3C(F)(F)F)CC2)nc(-c2ccc(NC(=O)Nc3cnn(C)c3)cc2)n1 [Example 10m, 1-[4-[4-[(3S)-3-methylmorpholin-4-yl]-6-[1-[2-(trifluoromethyl)phenyl]sulfonylcyclopropyl]pyrimidin-2-yl]phenyl]-3-(1-methylpyrazol-4-yl)urea]"
18,8.78,"CCS(=O)(=O)C1(c2cc(N3CCOC[C@@H]3C)nc(-c3ccc(NC(=O)NC4CC4)cc3)n2)CC1 [Example 11, 3-Cyclopropyl-1-[4-[4-(1-ethylsulfonylcyclopropyl)-6-[(3S)-3-methylmorpholin-4-yl]pyrimidin-2-yl]phenyl]urea]"
19,8.38,"CCS(=O)(=O)C1(c2cc(N3CCOC[C@@H]3C)nc(-c3ccc(NC(=O)NC)cc3)n2)CC1 [Example 11a, 1-[4-[4-(1-ethylsulfonylcyclopropyl)-6-[(3S)-3-methylmorpholin-4-yl]pyrimidin-2-yl]phenyl]-3-methyl-urea]"
20,8.48,"CCNC(=O)Nc1ccc(-c2nc(N3CCOC[C@@H]3C)cc(C3(S(=O)(=O)CC)CC3)n2)cc1 [Example 11b, 1-ethyl-3-[4-[4-(1-ethylsulfonylcyclopropyl)-6-[(3S)-3-methylmorpholin-4-yl]pyrimidin-2-yl]phenyl]urea]"
21,7.61,"CCS(=O)(=O)C1(c2cc(N3CCOC[C@@H]3C)nc(-c3ccc(NC(=O)NC(C)C)cc3)n2)CC1 [Example 11c, 1-[4-[4-(1-ethylsulfonylcyclopropyl)-6-[(3S)-3-methylmorpholin-4-yl]pyrimidin-2-yl]phenyl]-3-propan-2-yl-urea]"
22,8.19,"CCS(=O)(=O)C1(c2cc(N3CCOC[C@@H]3C)nc(-c3ccc(NC(=O)NC4CCC4)cc3)n2)CC1 [Example 11d, 3-cyclobutyl-1-[4-[4-(1-ethylsulfonylcyclopropyl)-6-[(3S)-3-methylmorpholin-4-yl]pyrimidin-2-yl]phenyl]urea]"
23,8.87,"CCS(=O)(=O)C1(c2cc(N3CCOC[C@@H]3C)nc(-c3ccc(NC(=O)NCCO)cc3)n2)CC1 [Example 11e, 1-[4-[4-(1-ethylsulfonylcyclopropyl)-6-[(3S)-3-methylmorpholin-4-yl]pyrimidin-2-yl]phenyl]-3-(2-hydroxyethyl)urea]"

# Same assay, conditions: table of enzyme assay Test (a)(ii); read-out: Test (a)(ii) IC50
row,pIC50,Compound
1,8.23,"CCS(=O)(=O)C1(c2cc(N3CCOC[C@@H]3C)nc(-c3ccc(NC(=O)NC)cc3)n2)CC1 [Example 11a, 1-[4-[4-(1-ethylsulfonylcyclopropyl)-6-[(3S)-3-methylmorpholin-4-yl]pyrimidin-2-yl]phenyl]-3-methyl-urea]"
2,8.71,"CCS(=O)(=O)C1(c2cc(N3CCOC[C@@H]3C)nc(-c3ccc(NC(=O)NCCO)cc3)n2)CC1 [Example 11e, 1-[4-[4-(1-ethylsulfonylcyclopropyl)-6-[(3S)-3-methylmorpholin-4-yl]pyrimidin-2-yl]phenyl]-3-(2-hydroxyethyl)urea]"
